In US20240150293A1, “SPIROCYCLOHEXANE DERIVATIVES, PHARMACEUTICAL COMPOSITIONS CONTAINING THEM AND THEIR USES AS ANTI-APOPTOTIC INHIBITORS” (LES LABORATOIRES SERVIER, priority 2021, published 2024) one finds Ki and IC50 data, which are given here for 9 compounds.

SMILES strings stand for the structures.

Experiment [1] deals with Cy5-labelled Mcl1 (amino acids 171-321) C286S protein (UniProtKB Q07820) (Homo sapiens (Human), UniProt Q07820, C286S). Put plainly: Inhibition of Mcl-1 by the fluorescence quenching assay (Example A, Method B). The format is binding. In outline: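 Cy5-labelled Mcl1 171-321 C286S (1 nM) quenched by TQ5WS-labelled PUMA peptide (10, 20 or 400 nM); displacement raises fluorescence (Ex 620/Em 680 nm). Buffer 10 mM HEPES, 150 mM NaCl, 0.05% Tween 20, pH 7.4, 5% DMSO; 2 h at room temperature, 11-point curves, IC50 converted to Ki (cKi/eKi).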
Chain of Cy5-labelled Mcl1 (amino acids 171-321) C286S protein (Q07820 171-321 C286S): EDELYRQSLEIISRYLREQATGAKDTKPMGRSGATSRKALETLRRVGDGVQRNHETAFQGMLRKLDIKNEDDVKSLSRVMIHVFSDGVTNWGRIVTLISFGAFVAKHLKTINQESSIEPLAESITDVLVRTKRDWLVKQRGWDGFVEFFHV

Experiment [2] deals with H929 multiple myeloma tumor line. Put plainly: In vitro cytotoxicity, MTT assay (Example B, Method A). As to conditions: Homo sapiens, NCI-H929, 48 h, H929 cells, 48 hours exposure, read-out: C50. The format is cell-based. How it is done: The cytotoxicity studies were carried out on the H929 multiple myeloma tumor line.
The cells are distributed onto microplates and exposed to the test compounds for 48 hours. The cell viability is then quantified by a colorimetric assay, the Microculture Tetrazolium Assay (Carmichael et al, Cancer Res. 1987, 47, 939-942).
The results are expressed in C50 which means concentration corresponding to […] of effect/inhibition.

As to `C[C@@H]1CCCc2nccc(OCC(CC3=Cc4ccccc4[C@]34CC[C@@](Nc3cccc(Cl)c3)(C(=O)O)CC4)c3ccccn3)c21` (stereo partly drawn) [Example 566, (1r,4R)-4-(3-chloroanilino)-2′-[3-{[(5R)-5-methyl-5,6,7,8-tetrahydroquinolin-4-yl]oxy}-2-(pyridin-2-yl)propyl]spiro[cyclohexane-1,1′-indene]-4-carboxylic acid], the Ki in experiment [1] stood at 4.34 nM. Moreover, the IC50 in experiment [2] turned out to be 721 nM.
For `C[C@@H](CNc1ccncc1)C[C@H]1Cc2ccccc2[C@]12CC[C@@](Nc1cccc(Cl)c1)(C(=O)O)CC2` [Example 575, (1r,2′S,4S)-4-(3-chloroanilino)-2′-{(2R)-2-methyl-3-[(pyridin-4-yl)amino]propyl}-2′,3′-dihydrospiro[cyclohexane-1,1′-indene]-4-carboxylic acid] the same measures were 350 nM and 16200 nM.
Regarding `C[C@@H](COc1ccncc1C1CC1)C[C@H]1Cc2ccccc2[C@]12CC[C@@](Nc1cccc(Cl)c1)(C(=O)O)CC2` [Example 577, (1r,2′S,4S)-4-(3-chloroanilino)-2′-{(2R)-3-[(3-cyclopropylpyridin-4-yl)oxy]-2-methylpropyl}-2′,3′-dihydrospiro[cyclohexane-1,1′-indene]-4-carboxylic acid], the inhibition constant (Ki) in experiment [1] came out at 10.4 nM. Also, the IC50 in experiment [2] was found to be 1190 nM.
For `C[C@@H](COc1ccncc1C(F)(F)F)C[C@H]1Cc2ccccc2[C@]12CC[C@@](Nc1cccc(Cl)c1)(C(=O)O)CC2` [Example 578, (1r,2′S,4S)-4-(3-chloroanilino)-2′-[(2R)-2-methyl-3-{[3-(trifluoromethyl)pyridin-4-yl]oxy}propyl]-2′,3′-dihydrospiro[cyclohexane-1,1′-indene]-4-carboxylic acid] the same measures were 7.84 nM and 471 nM.
The matching figures for `Cc1cncc(C)c1OC[C@H](C)C[C@H]1Cc2ccccc2[C@]12CC[C@@](Nc1cccc(Cl)c1)(C(=O)O)CC2` [Example 584, (1r,2′S,4S)-4-(3-chloroanilino)-2′-{(2R)-3-[(3,5-dimethylpyridin-4-yl)oxy]-2-methylpropyl}-2′,3′-dihydrospiro[cyclohexane-1,1′-indene]-4-carboxylic acid]: 7.03 nM and 1760 nM.
The matching figures for `Cc1c(OC[C@H](C)C[C@H]2Cc3ccccc3[C@]23CC[C@@](Nc2cccc(Cl)c2)(C(=O)O)CC3)ccnc1CO` [Example 586, (1r,2′S,4S)-4-(3-chloroanilino)-2′-[(2R)-3-{[2-(hydroxymethyl)-3-methylpyridin-4-yl]oxy}-2-methylpropyl]-2′,3′-dihydrospiro[cyclohexane-1,1′-indene]-4-carboxylic acid]: 2.62 nM and 1610 nM.
For the compound `CC(C)c1cnccc1OC[C@H](C)C[C@H]1Cc2ccccc2[C@]12CC[C@@](Nc1cccc(Cl)c1)(C(=O)O)CC2` [Example 587, (1r,2′S,4S)-4-(3-chloroanilino)-2′-[(2R)-2-methyl-3-{[3-(propan-2-yl)pyridin-4-yl]oxy}propyl]-2′,3′-dihydrospiro[cyclohexane-1,1′-indene]-4-carboxylic acid], in experiment [1], the Ki worked out at 3.93 nM. In addition, the IC50 in experiment [2] worked out at 679 nM.
The matching figures for `C[C@@H](COc1ccnc2ccsc12)CC1=Cc2ccccc2[C@]12CC[C@@](Nc1cccc(Cl)c1)(C(=O)O)CC2` [Example 589, (1r,4R)-4-(3-chloroanilino)-2′-{(2R)-2-methyl-3-[(thieno[3,2-b]pyridin-7-yl)oxy]propyl}spiro[cyclohexane-1,1′-indene]-4-carboxylic acid]: 8.39 nM and 694 nM.
Regarding `C[C@@H](COc1ccnc2ccsc12)C[C@H]1Cc2ccccc2[C@]12CC[C@@](Nc1cccc(Cl)c1)(C(=O)O)CC2` [Example 591, (1r,2′S,4S)-4-(3-chloroanilino)-2′-{(2R)-2-methyl-3-[(thieno[3,2-b]pyridin-7-yl)oxy]propyl}-2′,3′-dihydrospiro[cyclohexane-1,1′-indene]-4-carboxylic acid], the Ki in experiment [1] turned out to be 2.72 nM. Also, the IC50 in experiment [2] was determined as 438 nM.
